Test results: US9663789B2, “PME-1 as a biomarker to predict and diagnose endometrial and breast cancer and gene silencing of PME-1 to inhibit epithelial to mesenchymal transition” (MEDICAL DIAGNOSTIC LABORATORIES, LLC, priority 2013, dated 2017)

Tests used:
Assay type in all cases: cell-based, human
β-catenin = experiment: Western analysis of β-catenin in RL95-2 cells
From the text: We performed Western blot analysis in RL95-2 cells that were expressing empty vector (Control), over-expressing PME-1 (+PME-1) or expressing shRNA against PME-1 (−PME-1) (SEQ ID NO: 2) to examine the protein stability of β-catenin (FIG. 19A). We observed a decrease in total β-catenin protein in cells that were over-expressing PME-1. This observation is correlated with the predicted ubiquitylation of β-catenin and its degradation.
In another series of study, we performed a similar assay in which cells were treated with 10 μM MG-132 prior to protein extraction. MG-132 is a proteasome inhibitor and therefore allows for the accumulation of phosphorylated β-catenin, which is normally quickly degraded, to be detected by western analysis.
15 μg of protein was used for western analysis. PME-1 antibody (Santa Cruz) and COXIV (Cell Signaling Technologies) were used for detection of proteins and the blots were developed using chemiluminescence (Pierce ECL Western Blotting Substrate—Thermo Scientific) on the GE ImageQuant LAS 4000. For analysis of Akt, ERK, and β-catenin signaling in tissue culture, western analyses were completed as follows. RL95-2 cells stably infected with lentivirus expressing constructs were selected with puromycin (Invivogen). […]

RL95-2 cells = experiment: Immunofluorescence of mitotic cells (phosphorylated histone H3 Ser10); settings: RL95-2, compared to control cells
Experimental: Endometrial cancer cells were stained for phosphorylated histone H3 on serine 10, a marker of mitotic cells, followed by counterstaining with DAPI (FIG. 12) to identify all cells.
For analysis of patient samples, tissues were blocked for 2 hours with 10% FBS in TBST for at RT, incubated with each primary antibody (together) overnight at 4° C., washed three times for 15 min in TBST, incubated with each secondary fluorescent antibody (together) for 1 hr at RT, washed again as above, stained with DAPI and mounted with cover-slips using vectashield mounting media (Vector Labs). Primary antibodies used were for PME-1 (Santa Cruz), E-cadherin (Millipore), and vimentin (Genscript). 1×10^3RL95-2 cells were plated on a chamber slide and were incubated overnight at 37° C. Slides were fixed with 4% paraformaldehyde (PFA) on ice for two hours. The cells were incubated with the primary antibody to Histone 3 (pH3) phosphorylated at Ser10 (1:200, Cell Signaling Technologies) overnight and developed with the secondary anti-rabbit Alexa-Fluor 555 antibody (Cell Signaling Technologies). DAPI was used as a nuclear counter-stain (Sigma Aldrich). Images were taken with the Nikon Eclipse TE2000 at 20×.

DcR2 = experiment: Senescence assay: Western blot for DcR2 in RL95-2 cells; settings: RL95-2 cell lysates
Experimental: We next analyzed cell lysates taken from RL95-2 cells that expressed either empty vector (Control), overexpressed PME-1 (+PME-1) or expressed shRNA against PME-1 (−PME-1) for DcR2 protein.
(§1) 15 μg of protein was used for western analysis. PME-1 antibody (Santa Cruz) and COXIV (Cell Signaling Technologies) were used for detection of proteins and the blots were developed using chemiluminescence (Pierce ECL Western Blotting Substrate—Thermo Scientific) on the GE ImageQuant LAS 4000. For analysis of Akt, ERK, and β-catenin signaling in tissue culture, western analyses were completed as follows. RL95-2 cells stably infected with lentivirus expressing constructs were selected with puromycin (Invivogen). The cells were incubated with either 50 μM Akt inhibitor (LY 294002, Cell Signaling Technologies) or 40 μM ERK inhibitor (V0126, Cell Signaling Technologies) for 1-2 hours at 37° C. 1.5× Laemelli buffer (0.5 M Tris pH6.8, […], 10% sodium dodecyl sulfate, 100 mM EDTA) was used to prepare cell lysates. 20 μg of protein was used for western analysis. Primary antibodies used were: P-Akt (Ser473), P-Akt (Thr308), pan-Akt, P-ERK (Thr202/204), total ERK (Cell Signaling Technologies), PME-1 (Santa Cruz), phospho-β-catenin (Ser45, Cell Signaling Technologies), phospho-β-catenin (Ser33/37/Thr41, Cell Signaling Technologies), β-catenin (Abcam), DcR2 (Abcam), and GAPDH (Abcam). […]

ECC-1 cells = experiment: Foci formation assay, ECC-1 cells; settings: ECC-1 stable clones, with empty FLAG, PP2A, PP4 or PP6 over-expression, 10 days, vs shSCR
Experimental: FIG. 24 depicts results from a study in which stable clones of ECC-1 cells expressing non-targeting scrambled shRNA (shSCR, black bars) or shPPME-1 (white bars) (SEQ ID NO: 2) and were then transfected with FLAG empty vector, FLAG-PPP2CA, FLAG-PPP4C, or FLAG-PPP6C. Cells (3,000) were plated and were allowed to grow for 10 days. Colonies were then stained with crystal violet and counted. The control cells expressing shSCR and transfected with empty FLAG vector were normalized to 100% foci formation. […] Averages of 6 experiments are plotted and statistical significance was calculated with the Student's T test, where *p<0.05, **p<0.01, ***p<0.001.
We performed a foci formation analysis by transfecting: (i) empty FLAG vector, (ii) FLAG-PPP2CA, (iii) FLAG-PPP4C, or (iv) FLAG-PPP6C into ECC-1 cells that stably expressed either (i) shSCR (non-targeting shRNA, black bars) or (ii) shPPME1 (depletes PME-1 levels, white bars) (FIG. 24).
1,000 cells were plated in a six well tissue culture dish in selection media (to include 5 μg/ml puromycin) (InvivoGen). Cells were allowed to adhere and grow in a 5% CO2, 37° C. incubator for 10 to 14 days. Media was replaced every fourth day. Cells were stained with 1% crystal violet (Sigma Aldrich) for five minutes and rinsed with PBS. Colonies were counted and data is presented as the percentage of change compared to the control. […]

WNT3 = experiment: qRT-PCR of WNT3 expression in RL95-2 cells; settings: RL95-2, qRT-PCR normalized to 18S
Experimental: Using RL95-2 endometrial cancer cells, we overexpressed PME-1 (FIG. 21A) or depleted PME-1 with shRNA targeted to PME-1 (SEQ ID NO: 2) (FIG. 21B) and confirmed that PME-1 was appropriately expressed.
Total RNA was extracted with Qiagen RNAEasy kit from RL95-2 cells. cDNA was synthesized using 500 ng-1 μg of RNA and SuperScript VILO c-DNA mix (Life Technologies). Taqman probes and PCR-mix were purchased from Life Technologies. All samples were run in triplicates. Results are representative of three independent experiments in which genes of interest were normalized to the house-keeping gene, 18S or GAPDH, where fold-change was calculated using the ddCt method.

PME-1 = experiment: Western blot of PME-1 protein in RL95-2 cells; settings: GAPDH loading control
Experimental: We prepared RL95-2 cell lines expressing empty vector (control), over-expressing PME-1 (+PME-1), or expressing shRNA against PPME1, the gene that codes for PME-1 protein (−PME-1). Using these cells, we confirmed the appropriate level of PME-1 via real-time RT-PCR (data not shown) and Western blot analysis (FIG. 8). GAPDH was used as a loading control.
We also prepared two different shRNAs targeted against PME-1.
as §1, with “analysis.” for “analysis. Primary antibodies used were: P-Akt (Ser473), P-Akt (Thr308), pan-Akt, P-ERK (Thr202/204), total ERK (Cell Signaling Technologies), PME-1 (Santa Cruz), phospho-β-catenin (Ser45, Cell Signaling Technologies), phospho-β-catenin (Ser33/37/Thr41, Cell Signaling Technologies), β-catenin (Abcam), DcR2 (Abcam), and GAPDH (Abcam).”

With “shRNA (SEQ ID NO: 2): lentiviral shRNA against PPME1, target sequence SEQ ID NO: 2 GCAGCGATTATTAGTAGAGTT, bp 289-309; hairpin SEQ ID NO: 8 (CCGGGCAGCGATTATTAGTAGAGTTCTCGAGAACTCTACTAATAATCGCTGCTTTTT; listed as Homo sapiens)” the “total β-catenin protein (Western)” value (β-catenin; RL95-2, absence of MG-132) was “stabilization of total β-catenin”, the “phosphorylated β-catenin (Western)” value (β-catenin; RL95-2, treated with 10 μM MG-132, compared to control cells) was “did not lead to an increase in phosphorylated β-catenin” and the “decreased proliferation (phospho-histone H3 positive cells)” value (RL95-2 cells) was about 30%. The “senescent marker protein DcR2 (Western)” value (DcR2) was “increase in the senescent marker protein, DcR2”, the foci formation (ECC-1 cells; listed as shPPME1 (SEQ ID NO: 2)) was “significant decrease in foci formation” and the foci formation (ECC-1 cells; listed as shPPME-1 (SEQ ID NO: 2)) was “significant decrease in foci formed”. The WNT3 expression (WNT3) was “significantly decreased” and the “PME-1 levels by Western blot analysis” value (PME-1) was “significantly decreased PME-1 levels”.
